# In patent US8933224B2, “Triazine derivatives” (Pfizer Inc., priority 2013, dated 2015):
# Molecular target: rat PDE10 enzyme (Rattus norvegicus (Rat), UniProt Q9QYJ6)
# Assay: PDE10 scintillation proximity assay (SPA), inhibition of rat PDE10 enzyme activity
# Format: biochemical
# Conditions: geometric mean of 2-4 determinations unless otherwise indicated (b: ≧5 determinations; c: single determination)
# Method: PDE10 activity was measured using a scintillation assay (SPA-based method) similar to that previously described by Seeger, T. F. et al., Brain Research 985 (2003) 113-126. The compounds' relative activity as PDE10 inhibitors was investigated by assaying a fixed amount of enzyme in the presence of the test compound and low substrate concentration (cAMP) such that an IC50 could be determined. […] The assay is performed in a 384-well format with 50 μL assay buffer (50 mM TRIS pH 7.5; 1.3 mM MgCl2; 0.01% Brij) containing enough PDE10 to convert ˜20% of 20 nM ^3H-cAMP, and a range of inhibitors. Reactions are incubated for 30 minutes at 25° C. The addition of 20 μL of 8 mg/ml yttrium silicate SPA beads (PerkinElmer) stops the reaction. The plates are sealed (TopSeal, PerkinElmer) and the beads are allowed to settle for 8 hrs, after which they are read on the Trilux Microbeta overnight. ^1Rat enzyme preparation:^2Human enzyme preparation:
# The recombinant Bacmid was isolated and used to transfect sf9 insect cells to generate a viral stock. To generate cell paste for purification, sf21 cells were infected with the virus stock and cells were harvested 72 hours after infection as described in Seeger, T. F. et al., Brain Research 985 (2003) 113-126. Insect cell paste was lysed and after centrifugation, the supernatant was chromatographed on Ni-NTA agarose (Qiagen) followed by Mono Q (GE Healthcare Life Sciences) as described in Seeger, T. F. et al., Brain Research 985 (2003) 113-126.
# Sequence of rat PDE10 enzyme (Q9QYJ6 24-794): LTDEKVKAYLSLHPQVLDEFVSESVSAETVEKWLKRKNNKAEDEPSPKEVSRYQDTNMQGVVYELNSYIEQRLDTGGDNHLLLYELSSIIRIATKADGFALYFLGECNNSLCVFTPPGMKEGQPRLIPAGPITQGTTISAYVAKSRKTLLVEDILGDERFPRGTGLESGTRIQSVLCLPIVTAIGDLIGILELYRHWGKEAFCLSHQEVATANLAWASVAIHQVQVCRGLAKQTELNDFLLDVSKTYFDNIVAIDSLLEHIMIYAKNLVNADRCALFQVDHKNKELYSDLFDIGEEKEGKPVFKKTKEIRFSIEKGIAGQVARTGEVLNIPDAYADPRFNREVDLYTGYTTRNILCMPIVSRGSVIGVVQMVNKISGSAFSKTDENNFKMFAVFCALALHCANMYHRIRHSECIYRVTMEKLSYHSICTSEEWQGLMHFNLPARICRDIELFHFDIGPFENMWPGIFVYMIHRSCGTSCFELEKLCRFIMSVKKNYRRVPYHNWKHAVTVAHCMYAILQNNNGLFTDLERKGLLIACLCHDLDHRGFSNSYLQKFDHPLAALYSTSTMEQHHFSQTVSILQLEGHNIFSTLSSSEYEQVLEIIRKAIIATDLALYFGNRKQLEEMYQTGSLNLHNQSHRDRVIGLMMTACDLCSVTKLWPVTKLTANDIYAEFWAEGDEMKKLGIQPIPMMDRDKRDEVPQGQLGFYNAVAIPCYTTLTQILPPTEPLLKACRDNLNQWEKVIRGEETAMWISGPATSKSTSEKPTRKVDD
row,SMILES,IC50 [nM]
1,"Cc1nc(-c2ccc(F)cc2Cl)c2c(N3CCc4nc(C5CC5)ncc4C3)ncnn12 [Example 7, 6-[5-(2-Chloro-4-fluorophenyl)-7-methylimidazo[5,1-f][1,2,4]triazin-4-yl]-2-cyclopropyl-5,6,7,8-tetrahydropyrido[4,3-d]pyrimidine]",8.44
2,"Cc1ccccc1-c1nc(C)n2ncnc(N3CCc4c(c(C(C)C)nn4C)C3)c12 [Example 10, 4-(3-Isopropyl-1-methyl-1,4,6,7-tetrahydro-5H-pyrazolo[4,3-c]pyridin-5-yl)-7-methyl-5-(2-methylphenyl)imidazo[5,1-f][1,2,4]triazine]",0.56
3,"COc1cc2c(cc1OC)CN(c1ncnn3c(C)nc([C@H]4CCOC4)c13)CC2 [Example 14, 6,7-dimethoxy-2-{7-methyl-5-[(3R)-tetrahydrofuran-3-yl]imidazo[5,1-f][1,2,4]triazin-4-yl}-1,2,3,4-tetrahydroisoquinoline]",1.62
4,"COc1cc2c(cc1OC)CN(c1ncnn3c(C)nc([C@@H]4CCOC4)c13)CC2 [Example 15, 6,7-dimethoxy-2-{7-methyl-5-[(3S)-tetrahydrofuran-3-yl]imidazo[5,1-f][1,2,4]triazin-4-yl}-1,2,3,4-tetrahydroisoquinoline]",0.716
5,"Cc1nc([C@@H]2CCOC2)c2c(N3CCc4nc(C5CC5)ncc4C3)ncnn12 [Example 16, 2-cyclopropyl-6-{7-methyl-5-[(3S)-tetrahydrofuran-3-yl]imidazo{5,1-f][1,2,4]triazin-4-yl}-5,6,7,8-tetrahydropyrido[4,3-d]pyrimidine]",6.55
6,"COc1ccc2c(c1OC)CN(c1ncnn3c(C)nc([C@@H]4CCOC4)c13)CC2 [Example 17, 7,8-dimethoxy-2-{7-methyl-5-[(3S)-tetrahydrofuran-3-yl]imidazo[5,1-f][1,2,4]triazin-4-yl}-1,2,3,4-tetrahydroisoquinoline]",< 0.24
7,"Cc1nc(C2CCCO2)c2c(N3CCc4nc(C5CC5)ncc4C3)ncnn12 (stereo not drawn) [Example 22, 2-cyclopropyl-6-[7-methyl-5-(tetrahydrofuran-2-yl)imidazo[5,1-f][1,2,4]triazin-4-yl]-5,6,7,8-tetrahydropyrido[4,3-d]pyrimidine]",5.2
8,"Cc1ccccc1-c1nc(C)n2ncnc(N3CCc4nc(C5CC5)ncc4C3)c12 [Example 24, 2-cyclopropyl-6-[7-methyl-5-(2-methylphenyl)imidazo[5,1-f][1,2,4]triazin-4-yl]-5,6,7,8-tetrahydropyrido[4,3-d]pyrimidine]",< 3.29
9,"COc1cc2c(cc1OC)CN(c1ncnn3c(C)nc(-c4ccccc4F)c13)CC2 [Example 42, 2-[5-(2-fluorophenyl)-7-methylimidazo[5,1-f][1,2,4]triazin-4-yl]-6,7-dimethoxy-1,2,3,4-tetrahydroisoquinoline]",< 3.23
10,"Cc1nc(-c2ccccc2F)c2c(N3CCc4c(c(C(C)C)nn4C)C3)ncnn12 [Example 43, 5-(2-fluorophenyl)-4-(3-isopropyl-1-methyl-1,4,6,7-tetrahydro-5H-pyrazolo[4,3-c]pyridin-5-yl)-7-methylimidazo[5,1-f][1,2,4]triazine]",0.465
11,"Cc1nc(C2CCCO2)c2c(N3CCc4c(c(C(C)C)nn4C)C3)ncnn12 (stereo not drawn) [Example 45, 4-(3-isopropyl-1-methyl-1,4,6,7-tetrahydro-5H-pyrazolo[4,3-c]pyridin-5-yl)-7-methyl-5-(tetrahydrofuran-2-yl)imidazo[5,1-f][1,2,4]triazine]",3.84
12,"Cc1nc(-c2ccccc2F)c2c(N3CCc4noc(C5CC5)c4C3)ncnn12 [Example 46, 4-(3-cyclopropyl-6,7-dihydroisoxazolo[4,3-c]pyridin-5(4H)-yl)-5-(2-fluorophenyl)-7-methylimidazo[5,1-f][1,2,4]triazine]",1.98
13,"CCc1nn(C)c2c1CN(c1ncnn3c(C)nc(CC(C)C)c13)CC2 [Example 48, 4-(3-ethyl-1-methyl-1,4,6,7-tetrahydro-5H-pyrazolo[4,3-c]pyridin-5-yl)-5-isobutyl-7-methylimidazo[5,1-f][1,2,4]triazine]",< 1
14,"Cc1nc([C@H]2CCOC2)c2c(N3CCc4cc(Cl)c(Cl)cc4C3)ncnn12 [Example 51, 6,7-dichloro-2-{7-methyl-5-[(3R)-tetrahydrofuran-3-yl]imidazo[5,1-f][1,2,4]triazin-4-yl}-1,2,3,4-tetrahydroisoquinoline]",13.5
15,"Cc1nc(-c2ccccc2F)c2c(N3CCc4nc(C5CC5)oc4C3)ncnn12 [Example 53, 4-(2-cyclopropyl-6,7-dihydro[1,3]oxazolo[5,4-c]pyridin-5(4H)-yl)-5-(2-fluorophenyl)-7-methylimidazo[5,1-f][1,2,4]triazine]",1.79
16,"Cc1nc(CC(C)C)c2c(N3CCc4nc(C5CC5)oc4C3)ncnn12 [Example 54, 4-(2-cyclopropyl-6,7-dihydro[1,3]oxazolo[5,4-c]pyridin-5(4H)-yl)-5-isobutyl-7-methylimidazo[5,1-f][1,2,4]triazine]",4.52
17,"Cc1nc(CC(C)C)c2c(N3CCc4nc(C5CC5)ncc4C3)ncnn12 [Example 55, 2-cyclopropyl-6-(5-isobutyl-7-methylimidazo[5,1-f][1,2,4]triazin-4-yl)-5,6,7,8-tetrahydropyrido[4,3-d]pyrimidine]",2.19
18,"COc1cc2c(cc1OC)CN(c1ncnn3c(C)nc(C4CCOCC4)c13)CC2 [Example 59, 6,7-dimethoxy-2-[7-methyl-5-(tetrahydro-2H-pyran-4-yl)imidazo[5,1-f][1,2,4]triazin-4-yl]-1,2,3,4-tetrahydroisoquinoline]",3.1
19,"COc1ccc2c(c1OC)CN(c1ncnn3c(C)nc(C4CCOCC4)c13)CC2 [Example 60, 7,8-dimethoxy-2-[7-methyl-5-(tetrahydro-2H-pyran-4-yl)imidazo[5,1-f][1,2,4]triazin-4-yl]-1,2,3,4-tetrahydroisoquinoline]",1.35

# Next, values leading:
row,IC50 [nM],SMILES
1,< 2.26,"Cc1nc([C@H]2CCOC2)c2c(N3CCc4nn(C5CC5)cc4C3)ncnn12 [Example 26, 4-(2-cyclopropyl-2,4,6,7-tetrahydro-5H-pyrazolo[4,3-c]pyridin-5-yl)-7-methyl-5-[(3R)-tetrahydrofuran-3-yl]imidazo[5,1-f][1,2,4]triazine]"
2,3.52,"Cc1nc([C@@H]2CCOC2)c2c(N3CCc4noc(C(C)C)c4C3)ncnn12 [Example 30, 7-methyl-4[3-(propan-2-yl)-6,7-dihydro[1,2]oxazolo[4,3-c]pyridin-5(4H)-yl]-5-[(3S)-tetrahydrofuran-3-yl]imidazo[5,1-f][1,2,4]triazine]"
3,3.73,CCc1onc2c1CN(c1ncnn3c(C)nc([C@@H]4CCOC4)c13)CC2 [Example 31]
4,3.74,CCc1noc2c1CN(c1ncnn3c(C)nc([C@@H]4CCOC4)c13)CC2 [Example 32]
5,23.3,"Cc1onc2c1CN(c1ncnn3c(C)nc([C@@H]4CCOC4)c13)CC2 [Example 33, 7-methyl-4-(3-methyl-6,7-dihydro[1,2]oxazolo[4,3-c]pyridin-5(4H)-yl)-5-[(3S)-tetrahydrofuran-3-yl]imidazo[5,1-f][1,2,4]triazine]"
6,16.5,"Cc1noc2c1CN(c1ncnn3c(C)nc([C@@H]4CCOC4)c13)CC2 [Example 34, 7-methyl-4-(3-methyl-6,7-dihydro[1,2]oxazolo[4,5-c]pyridin-5(4H)-yl)-5-[(3S)-tetrahydrofuran-3-yl]imidazo[5,1-f][1,2,4]triazine]"
7,0.44,"Cc1nc2c(c(OC(F)F)n1)CN(c1ncnn3c(C)nc([C@@H]4CCOC4)c13)CC2 [Example 36, 4-(difluoromethoxy)-2-methyl-6-{7-methyl-5-[(3S)-tetrahydrofuran-3-yl]imidazo[5,1-f][1,2,4]triazin-4-yl}-5,6,7,8-tetrahydropyrido[4,3-d]pyrimidine]"
8,0.193,"COc1nc(C2CC2)nc2c1CN(c1ncnn3c(C)nc([C@@H]4CCOC4)c13)CC2 [Example 39, 2-cyclopropyl-4-methoxy-6-{7-methyl-5-[(3S)-tetrahydrofuran-3-yl]imidazo[5,1-f][1,2,4]triazin-4-yl}-5,6,7,8-tetrahydropyrido[4,3-d]pyrimidine]"
9,< 0.175,"Cc1nc(C2CC2)nc2c1CN(c1ncnn3c(C)nc([C@@H]4CCOC4)c13)CC2 [Example 41, 2-cyclopropyl-4-methyl-6-{7-methyl-5-[(3S)-tetrahydrofuran-3-yl]imidazo[5,1-f][1,2,4]triazin-4-yl}-5,6,7,8-tetrahydropyrido[4,3-d]pyrimidine]"
10,0.101,"Cc1nc([C@@H]2CCOC2)c2c(N3CCc4nc(C5CC5)nc(O)c4C3)ncnn12 [Example 52, 2-cyclopropyl-6-{7-methyl-5-[(3S)-tetrahydrofuran-3-yl]imidazo[5,1-f][1,2,4]triazin-4-yl}-5,6,7,8-tetrahydropyrido[4,3-d]pyrimidin-4-ol]"
11,5.34,"Cc1nc([C@H]2CCOC2)c2c(N3CCc4nc(C5CC5)ncc4C3)ncnn12 [Example 56, 2-cyclopropyl-6-{7-methyl-5-[(3R)-tetrahydrofuran-3-yl]imidazo[5,1-f][1,2,4]triazin-4-yl}-5,6,7,8-tetrahydropyrido[4,3-d]pyrimidine]"
